# Source: PubChem BioAssay AID1996
# Details: buffer; pH 7.4; 200.0 µM
row,Structure (SMILES),solubility kinetic
1,Cc1cc(C)c(C)c(S(=O)(=O)NCCCN2CCOCC2)c1C,> 51.1 µg/mL
2,Cc1cc(OC(=O)c2ccccc2F)c([N+](=O)[O-])c(=O)[nH]1,> 43.8 µg/mL
3,COc1ccc(OC)c(CNc2c(C=O)c(=O)[nH]c3ccccc23)c1,< 0.4 µg/mL
4,COc1ccc(CC(=O)N2CCN=C2SC)cc1OC,> 44.2 µg/mL
5,Cc1cc(C)cc(NC(=O)Nc2ccccc2N2CCCCC2)c1,25.5 µg/mL
6,Cc1ccnc(NC(=O)c2cccc(NC(=O)c3ccccc3C)c2)c1,2.1 µg/mL
7,COc1cc(/C=C/C(=O)OCC(=O)NC(=O)NCc2ccco2)ccc1OC(F)F,7.1 µg/mL
8,O=C(O)c1cccc(NC(=O)c2ccccc2NC(=O)c2ccco2)c1,> 52.5 µg/mL
9,COc1cccc2c(Nc3ccccc3C)cc(C)nc12.Cl,40.1 µg/mL
10,Oc1cccc(C(=S)N2CCC(Cc3ccccc3)CC2)c1,15 µg/mL
11,Cc1ccc(OCCN2C(=O)C(=O)c3cccc(C)c32)cc1,< 0.6 µg/mL
12,CCNC(=S)Nc1sc2c(c1C#N)CCC(C)C2 (stereo not given),1.1 µg/mL
13,Cc1cc(NC(=O)CSc2nc(C)c(C)n2CC(C)C)no1,> 48.4 µg/mL
14,CC(C)CNC(=O)C1CCN(CC2CCCCC2)CC1.O=C(O)C(=O)O,> 55.6 µg/mL
15,COc1ccc(NC(=O)c2ccc(NC(=O)C3CC3)cc2)cc1,< 0.3 µg/mL
16,CC(=O)Nc1cccc(NC=C(C#N)C#N)c1,11.7 µg/mL
17,O=C(COC(=O)c1cnccn1)Nc1ccc(Cl)cn1,> 43.9 µg/mL
18,Cc1ccsc1C1C(C#N)=C(N)OC2=C1C(=O)CC(C)(C)C2 (stereo not given),> 47.2 µg/mL
19,COCCCNC(=S)N1CCCC(c2nc3cc(C)c(C)cc3[nH]2)C1 (stereo not given),53.2 µg/mL
20,Cc1nc(N2CCOCC2)[nH]c(=O)c1C,> 31.4 µg/mL

row,Structure (SMILES),solubility kinetic
1,CCCn1c(=O)c(C(=O)Nc2ccccc2C)c(O)c2ccccc21,< 0.4 µg/mL
2,CCn1c(SCC(=O)O)nnc1-c1ccccc1OC,> 44 µg/mL
3,CC1CCCCC1Nc1ncnc2sccc12 (stereo not given),> 37.1 µg/mL
4,Cc1c(S(=O)(=O)NCc2ccccc2)c(=O)n(C)c(=O)n1C,> 48.5 µg/mL
5,O=C(CC1SC(N2CCOCC2)=NC1=O)Nc1cccc(C(F)(F)F)c1 (stereo not given),27.8 µg/mL
6,Cc1ccc(CNC(=O)CCCc2cn(C)c3ccccc23)cc1,0.4 µg/mL
7,CN(C)c1cc(Nc2cccc(O)c2)c([N+](=O)[O-])c2nonc12,0.4 µg/mL
8,Cc1ccc(-n2c(C)cc(C(=O)OCC(=O)N3CCOCC3)c2C)cc1,> 53.5 µg/mL
9,COc1cc(/C=C/C(=O)OCC(=O)N2CCCc3ccccc32)ccc1O,33.1 µg/mL
10,Cc1ccc(NC(=O)CC2(CC(=O)O)CCCC2)c(C)c1,40.8 µg/mL
11,Fc1ccc2nc(Nc3ccccc3)sc2c1,0.5 µg/mL
12,O=C(CC1NC(=S)NC1=O)c1ccc(Cl)cc1 (stereo not given),3.2 µg/mL
13,Cc1ccc(O)c(NC(=S)NC(=O)/C=C/c2ccccc2)c1,< 0.3 µg/mL
14,COC(=O)C1CN(C(=O)COc2ccccc2)c2ccccc2O1 (stereo not given),48.7 µg/mL
15,CCOc1ccc2oc(C(=O)Nc3nccs3)c(C)c2c1,2.2 µg/mL
16,CCOc1ccc(N2CC(C(=O)N3CCCCC3)CC2=O)cc1 (stereo not given),46.4 µg/mL
17,Cc1nc(SCC(=O)N2CC(=O)Nc3ccccc32)nc(C)c1C,10.8 µg/mL
18,O=C(NCc1cccnc1)Nc1cccc(Cl)c1,37.2 µg/mL
19,Cc1cccc(CCN=C(N)NS(=O)(=O)c2ccccc2)c1,> 47.6 µg/mL
20,CC(C)c1ccccc1OCCNC(=O)c1cncc(Br)c1,36.4 µg/mL

row,Structure (SMILES),solubility kinetic
1,Nc1cc(-c2ccccc2)n2c(n1)nc1ccccc12,5.7 µg/mL
2,CCc1noc(C)c1C(=O)OCC(=O)NCc1ccccc1,> 45.3 µg/mL
3,CC(=O)c1ccc(NC(=S)N2CCCC2)cc1,35.4 µg/mL
4,CC(=O)/C(C#N)=C1\NC(=O)C(Cc2ccccc2C)S1 (stereo not given),> 43 µg/mL
5,CCN(CC)c1ccc(/C=C2\SC(=O)N(C(C)C)C2=O)o1,4.1 µg/mL
6,CCC(CC)C(=O)c1c[nH]c(C(=O)NCCOC)c1,> 40 µg/mL
7,Cc1cccc(OC(=O)c2cccnc2)c1,12.6 µg/mL
8,COc1ccc(Cl)cc1NC(=O)NCCN1CCNC1=O,43.9 µg/mL
9,CC(C)c1nc2sc3c(=O)[nH]c(=S)[nH]c3c2c2c1CCCC2,45.9 µg/mL
10,O=[N+]([O-])c1ccccc1S(=O)(=O)Nc1ccc2c(c1)OCCO2,> 50.4 µg/mL
11,N/C(=N\c1nc2ccccc2o1)NC(=O)c1ccccc1Br,< 0.2 µg/mL
12,CN(C)/C=C1/NC(=S)NC1=O,> 25.7 µg/mL
13,Cc1nonc1CC(=O)N1CCCC(C(=O)c2ccc(Cl)cc2)C1 (stereo not given),48.2 µg/mL
14,c1ccc(-c2ccccc2OCCN2CCCC2)cc1,25 µg/mL
15,CCOC(=O)N1CCN(C(=O)c2ccc(S(=O)(=O)Nc3ccccc3)cc2)CC1,> 62.6 µg/mL
16,O=c1cc(O)nc[nH]1,> 16.8 µg/mL
17,COc1ccc(NC(=O)c2sccc2C)cn1,> 37.2 µg/mL
18,COc1cccc(N(CC(=O)N2CCCC2)S(C)(=O)=O)c1,> 46.9 µg/mL
19,O=C(CNS(=O)(=O)c1ccc(F)cc1)Nc1ccccc1,44.1 µg/mL
20,CC(=O)c1ccc(N2CCC(C)CC2)c(F)c1,6 µg/mL
